pIC50: −log10 of the molar value.
How the values were obtained:
DPP4 = DPP4 (Homo sapiens, UniProt P27487); experiment: DPP4 inhibition, fluorogenic substrate H-Gly-Pro-AMC; type: biochemical; parameters: purchased R&D Systems; conditions: for inhibition at 1 µM: read-out: hDPP4 inhibition % at 1 μM
Description: The compounds according to the present technology were evaluated in terms of the inhibitory effect on the activity of dipeptidyl peptidases including FAP by using a substrate producing fluorescent substances upon enzymatic decomposition. The test was conducted at 25° C. to get a final reaction volume of 100 μL in a 96 black well plate. […] Briefly, the test compounds were dissolved in dimethyl sulfoxide (DMSO) at a concentration of 20 mM and then subjected to serial dilution, thereby creating an 8 point curve. As for the control group, a 6 point curve created by serial dilution of Talabostat in the same buffer solution was used. Fluorescence intensity was measured using a microplate reader (Flexstation3, Molecular Devices) under the wavelength condition exciting at 380 nm and reading the emission at 460 nm. The inhibitory effect of the test compounds was measured as a decrease (%) in the signal rate as compared to the control group without any inhibitor. Data was fixed to a logistic model with four variables and IC50 value was calculated using GraphPad Prism program. As for recombinant human DPP4 (R&D Systems), 25 mM tris (pH 8.0) buffer as a buffer solution and H-Gly-Pro-AMC (Bachem) as a substrate were used. As for recombinant human DPP7 (R&D Systems), 25 mM MES (pH 6.0) buffer as a buffer solution and Lys-Pro-AMC (Bachem) as a substrate were used. As for recombinant human DPP8 (PBS Bioscience), as a buffer solution, a 10 mM tris (pH 7.4) buffer comprising 10 mM of magnesium chloride and 0.05% of Tween 20, and Z-Ala-Pro-AMC (BPS Bioscience) as a substrate were used. As for recombinant human DPP9 (R&D Systems), a 25 mM tris (pH 8.0) buffer as a buffer solution and H-Gly-Pro-AMC (Bachem) as a substrate were used. As for recombinant human PREP (R&D System), as a buffer solution, a 25 mM tris (pH 7.5) buffer comprising 250 mM sodium chloride and 2.5 mM DTT (Dithiolthreitol), and Z-Gly-Pro-AMC (Bachem) as a substrate were used. The evaluation was made by using 10 ng of DPP4, PDD7, and PREP, 20 ng of DPP8, and 50 ng of DPP9 based on the final reaction. In the evaluation of DPP4, the test compounds were subjected to serial dilution in a buffer under the condition containing up to 0.1% of DMSO. In the evaluation of DPP7, DPP8, DPP9, and PREP, the test compounds were subjected to serial dilution in each buffer under the condition containing up to 0.5% of DMSO.

Recombinant human FAP = target: T1, Recombinant human FAP (Homo sapiens, UniProt Q12884); experiment: FAP inhibition, fluorogenic substrate Z-Gly-Pro-AMC; type: biochemical; conditions: for inhibition at 1 µM: read-out: hFAP inhibition % at 1 μM
T1 construct: purchased R&D systems
T1 sequence (Q12884 1-760): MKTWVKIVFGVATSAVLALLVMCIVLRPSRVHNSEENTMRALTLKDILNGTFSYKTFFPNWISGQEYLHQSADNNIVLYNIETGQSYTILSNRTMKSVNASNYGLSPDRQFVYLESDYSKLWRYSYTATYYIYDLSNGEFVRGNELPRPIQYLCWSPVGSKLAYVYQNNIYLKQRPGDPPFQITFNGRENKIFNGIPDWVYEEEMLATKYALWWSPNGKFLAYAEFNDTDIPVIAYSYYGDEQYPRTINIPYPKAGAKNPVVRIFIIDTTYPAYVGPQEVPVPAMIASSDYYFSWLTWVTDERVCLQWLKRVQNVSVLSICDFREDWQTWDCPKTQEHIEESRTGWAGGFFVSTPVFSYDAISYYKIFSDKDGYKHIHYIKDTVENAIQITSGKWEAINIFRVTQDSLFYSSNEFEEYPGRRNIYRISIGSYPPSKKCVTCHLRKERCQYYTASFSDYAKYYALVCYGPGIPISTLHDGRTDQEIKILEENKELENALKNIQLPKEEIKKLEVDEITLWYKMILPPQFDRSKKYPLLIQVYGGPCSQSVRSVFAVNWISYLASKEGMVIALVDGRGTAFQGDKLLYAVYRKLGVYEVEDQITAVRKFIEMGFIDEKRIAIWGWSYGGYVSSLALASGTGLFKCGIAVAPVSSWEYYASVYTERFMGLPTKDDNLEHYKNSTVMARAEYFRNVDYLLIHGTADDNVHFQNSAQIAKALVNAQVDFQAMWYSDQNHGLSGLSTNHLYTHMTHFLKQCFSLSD
Description: The compounds according to the present technology were evaluated in terms of the inhibitory effect on the activity of dipeptidyl peptidases including FAP by using a substrate producing fluorescent substances upon enzymatic decomposition. The test was conducted at 25° C. to get a final reaction volume of 100 μL in a 96 black well plate. […] Briefly, the test compounds were dissolved in dimethyl sulfoxide (DMSO) at a concentration of 20 mM and then subjected to serial dilution, thereby creating an 8 point curve. As for the control group, a 6 point curve created by serial dilution of Talabostat in the same buffer solution was used. Fluorescence intensity was measured using a microplate reader (Flexstation3, Molecular Devices) under the wavelength condition exciting at 380 nm and reading the emission at 460 nm. The inhibitory effect of the test compounds was measured as a decrease (%) in the signal rate as compared to the control group without any inhibitor. Data was fixed to a logistic model with four variables and IC50 value was calculated using GraphPad Prism program. Recombinant human FAP (R&D systems) was diluted with 50 mM tris (pH 7.5) buffer comprising 1 M of sodium chloride and 1 mg/ml of bovine serum albumin (BSA) to be 10 ng per final reaction. The test compounds were subjected to serial dilution in a buffer under the condition containing up to 0.1% of DMSO. Z-Gly-Pro-AMC (Bachem) was used as a substrate. By dissolving in DMSO and then diluting in the same buffer, the substrate was added to be […] per final reaction.

[1] = 25° C., Z-Gly-Pro-AMC substrate
[2] = recombinant human FAP, substrate Z-Gly-Pro-AMC

DPP4, sequence (P27487 whole entry): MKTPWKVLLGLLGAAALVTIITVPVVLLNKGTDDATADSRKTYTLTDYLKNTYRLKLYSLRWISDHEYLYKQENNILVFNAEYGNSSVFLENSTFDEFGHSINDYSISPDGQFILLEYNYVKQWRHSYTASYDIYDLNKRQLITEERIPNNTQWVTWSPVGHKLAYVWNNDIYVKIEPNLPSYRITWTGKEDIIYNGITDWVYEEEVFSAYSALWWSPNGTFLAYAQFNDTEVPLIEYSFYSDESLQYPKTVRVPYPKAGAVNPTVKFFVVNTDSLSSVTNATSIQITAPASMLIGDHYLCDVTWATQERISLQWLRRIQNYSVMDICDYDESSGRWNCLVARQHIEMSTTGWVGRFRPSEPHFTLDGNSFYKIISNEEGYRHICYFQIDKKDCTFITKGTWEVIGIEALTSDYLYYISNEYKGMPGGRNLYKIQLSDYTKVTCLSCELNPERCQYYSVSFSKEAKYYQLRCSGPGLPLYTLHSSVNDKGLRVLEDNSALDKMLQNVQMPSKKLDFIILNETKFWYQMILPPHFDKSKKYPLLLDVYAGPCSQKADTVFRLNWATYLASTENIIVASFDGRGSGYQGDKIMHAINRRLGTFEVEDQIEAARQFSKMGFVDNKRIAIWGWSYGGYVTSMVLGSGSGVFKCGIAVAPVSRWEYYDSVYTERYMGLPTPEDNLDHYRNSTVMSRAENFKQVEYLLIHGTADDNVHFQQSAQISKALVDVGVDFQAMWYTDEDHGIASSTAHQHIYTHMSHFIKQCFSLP

Compound	inhibition at 1 µM (DPP4)	pIC50 (Recombinant human FAP; [1])	further results
N#C[C@@H]1CCCN1C(=O)CN1CC[C@@H](C(=O)Nc2cnc3ccccc3c2)C1 [Example 1, (R)-1-(2-((S)-2-cyanopyrrolidin-1-yl)-2-oxoethyl)-N-(quinolin-3-yl)pyrrolidine-3-carboxamide]	4.4%	6.79	
N#C[C@@H]1CCCN1C(=O)CN1CC[C@@H](C(=O)Nc2ccnc3ccccc23)C1 [Example 2, (R)-1-(2-((S)-2-cyanopyrrolidin-1-yl)-2-oxoethyl)-N-(quinolin-4-yl)pyrrolidine-3-carboxamide]	14.6%	7.07	
N#C[C@@H]1CCCN1C(=O)CN1CC[C@H](C(=O)Nc2cnc3ccccc3c2)C1 [Example 3, (S)-1-(2-((S)-2-cyanopyrrolidin-1-yl)-2-oxoethyl)-N-(quinolin-3-yl)pyrrolidine-3-carboxamide]	4.2%	6.76	
N#C[C@@H]1CCCN1C(=O)CN1CC[C@H](C(=O)Nc2ccnc3ccccc23)C1 [Example 4, (S)-1-(2-((S)-2-cyanopyrrolidin-1-yl)-2-oxoethyl)-N-(quinolin-4-yl)pyrrolidine-3-carboxamide]	15.1%	7.00	
N#C[C@@H]1CCCN1C(=O)CN1CC[C@@H](Nc2cccc(-c3ccccc3)c2)C1 [Example 18, (S)-1-(2-((R)-3-([1,1′-biphenyl]-3-ylamino)pyrrolidin-1-yl)acetyl)pyrrolidine-2-carbonitrile]		7.60	hDPP4 inhibition % at 1 μM (DPP4): No inhibition**
N#C[C@@H]1CCCN1C(=O)CN1CC[C@H](Nc2cccc3ccsc23)C1 [Example 21, (S)-1-(2-((S)-3-(benzo[b]thiophen-7-ylamino)pyrrolidin-1-yl)acetyl)pyrrolidine-2-carbonitrile]	3.6%	7.47	
N#C[C@@H]1CCCN1C(=O)CN1CC[C@H](Nc2cccc3ccoc23)C1 [Example 22, (S)-1-(2-((S)-3-(benzofuran-7-ylamino)pyrrolidin-1-yl)acetyl)pyrrolidine-2-carbonitrile]	4.2%	8.04	
N#C[C@@H]1CCCN1C(=O)CN1CC[C@@H](Nc2cccc3ccsc23)C1 [Example 25, (S)-1-(2-((R)-3-(benzo[b]thiophen-7-ylamino)pyrrolidin-1-yl)acetyl)pyrrolidine-2-carbonitrile]	2.9%	7.24	
N#C[C@@H]1C[C@@H]2C[C@@H]2N1C(=O)CN1CC[C@H](Nc2cncc3ccoc23)C1 [Example 26, (1S,3S,5S)-2-(2-((S)-3-(furo[3,2-c]pyridin-7-ylamino)pyrrolidin-1-yl)acetyl)-2-azabicyclo[3.1.0]hexane-3-carbonitrile]	0.4%		inhibition at 1 µM (Recombinant human FAP): 93.7%
N#C[C@@H]1CCCN1C(=O)CN1CC[C@H](NC(=O)c2ccnc3ccccc23)C1 [Example 30, N—((S)-1-(2-((S)-2-cyanopyrrolidin-1-yl)-2-oxoethyl)pyrrolidin-3-yl)quinoline-4-carboxamide]		6.84	hDPP4 inhibition % at 1 μM (DPP4): No inhibition**
N#C[C@@H]1CCCN1C(=O)CN1CC[C@H](NC(=O)c2cnc3ccccc3c2)C1 [Example 31, N—((S)-1-(2-((S)-2-cyanopyrrolidin-1-yl)-2-oxoethyl)pyrrolidin-3-yl)quinoline-3-carboxamide]	5.4%	6.79	
N#C[C@@H]1CCCN1C(=O)CN1CC[C@H](NC(=O)c2cccc3ncccc23)C1 [Example 32, N—((S)-1-(2-((S)-2-cyanopyrrolidin-1-yl)-2-oxoethyl)pyrrolidin-3-yl)quinoline-5-carboxamide]	2%	7.15	
N#C[C@@H]1CCCN1C(=O)CN1CC[C@H](NC(=O)c2ccc3ccccc3n2)C1 [Example 33, N—((S)-1-(2-((S)-2-cyanopyrrolidin-1-yl)-2-oxoethyl)pyrrolidin-3-yl)quinoline-2-carboxamide]			hDPP4 inhibition % at 1 μM (DPP4): No inhibition**; inhibition at 1 µM (Recombinant human FAP): 66.1%
N#C[C@@H]1CCCN1C(=O)CN1CC[C@@H](Nc2ccc3cccnc3c2)C1 [Example 163, (2S)-1-[2-[(3R)-3-(7-quinolylamino)pyrrolidin-1-yl]acetyl]pyrrolidine-2-carbonitrile]			pIC50 (Recombinant human FAP; [2]): 7.54
N#C[C@@H]1CCCN1C(=O)CN1CC[C@@H](Nc2cccc3cccnc23)C1 [Example 164, (2S)-1-[2-[(3R)-3-(8-quinolylamino)pyrrolidin-1-yl]acetyl]pyrrolidine-2-carbonitrile]			pIC50 (Recombinant human FAP; [2]): 7.25
N#C[C@@H]1C[C@H](F)CN1C(=O)CN1CC[C@@H](Nc2ccc3cccnc3c2)C1 [Example 168, (2S,4S)-4-fluoro-1-[2-[(3R)-3-(7-quinolylamino)pyrrolidin-1-yl]acetyl]pyrrolidine-2-carbonitrile]			pIC50 (Recombinant human FAP; [2]): 7.94
N#C[C@@H]1C[C@H](F)CN1C(=O)CN1CC[C@@H](Nc2cccc3cccnc23)C1 [Example 169, (2S,4S)-4-fluoro-1-[2-[(3R)-3-(8-quinolylamino)pyrrolidin-1-yl]acetyl]pyrrolidine-2-carbonitrile]			pIC50 (Recombinant human FAP; [2]): 7.45

Now from value to molecule, other results behind:

inhibition at 1 µM (DPP4)	pIC50 (Recombinant human FAP; [1])	Compound	further results
	7.06	CN(c1ccc2ccccc2n1)[C@@H]1CCN(CC(=O)N2CCC[C@H]2C#N)C1 [Example 137, (2S)-1-[2-[(3R)-3-[methyl(2-quinolyl)amino]pyrrolidin-1-yl]acetyl]pyrrolidine-2-carbonitrile]	
	7.47	CN(c1ccc2cccnc2c1)[C@@H]1CCN(CC(=O)N2CCC[C@H]2C#N)C1 [Example 141, (2S)-1-[2-[(3R)-3-[methyl(7-quinolyl)amino]pyrrolidin-1-yl]acetyl]pyrrolidine-2-carbonitrile]	
	7.26	CN(c1ccnc2ccccc12)[C@H]1CCN(CC(=O)N2CCC[C@H]2C#N)C1 [Example 143, (2S)-1-[2-[(3S)-3-[methyl(4-quinolyl)amino]pyrrolidin-1-yl]acetyl]pyrrolidine-2-carbonitrile]	
	7.83	CN(c1cncc2ccccc12)[C@H]1CCN(CC(=O)N2CCC[C@H]2C#N)C1 [Example 147, (2S)-1-[2-[(3S)-3-[4-isoquinolyl(methyl)amino]pyrrolidin-1-yl]acetyl]pyrrolidine-2-carbonitrile]	

Reference: patent US11655235B2, “Pyrrolidine and piperidine compounds” (YUHAN CORPORATION, priority 2019, dated 2023)
